Data on 48 compounds can be found in patent US20090227607A1, “DEAZAPURINES USEFUL AS INHIBITORS OF JANUS KINASES” (priority 2006, published 2009).

One experiment addresses JAK-2 enzyme (Homo sapiens, UniProt O60674). Put plainly: JAK2 Inhibition Assay. It is filed as biochemical. To be noted: 15 μM poly(Glu)4Tyr, 12 μM ATP, 25° C. A digest of the protocol: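 JAK2 kinase in HEPES pH 7.4 buffer with MgCl2, DTT, NaCl and BSA; final 15 μM poly(Glu)4Tyr and 12 μM [33P]ATP. Enzyme added to start, 20 min at 25 °C, TCA stop, filter capture and scintillation count of 33P incorporation; Ki values.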

The next experiment has as its target T1, JAK3 (Homo sapiens, UniProt P52333).
T1 sequence (P52333 1-1124): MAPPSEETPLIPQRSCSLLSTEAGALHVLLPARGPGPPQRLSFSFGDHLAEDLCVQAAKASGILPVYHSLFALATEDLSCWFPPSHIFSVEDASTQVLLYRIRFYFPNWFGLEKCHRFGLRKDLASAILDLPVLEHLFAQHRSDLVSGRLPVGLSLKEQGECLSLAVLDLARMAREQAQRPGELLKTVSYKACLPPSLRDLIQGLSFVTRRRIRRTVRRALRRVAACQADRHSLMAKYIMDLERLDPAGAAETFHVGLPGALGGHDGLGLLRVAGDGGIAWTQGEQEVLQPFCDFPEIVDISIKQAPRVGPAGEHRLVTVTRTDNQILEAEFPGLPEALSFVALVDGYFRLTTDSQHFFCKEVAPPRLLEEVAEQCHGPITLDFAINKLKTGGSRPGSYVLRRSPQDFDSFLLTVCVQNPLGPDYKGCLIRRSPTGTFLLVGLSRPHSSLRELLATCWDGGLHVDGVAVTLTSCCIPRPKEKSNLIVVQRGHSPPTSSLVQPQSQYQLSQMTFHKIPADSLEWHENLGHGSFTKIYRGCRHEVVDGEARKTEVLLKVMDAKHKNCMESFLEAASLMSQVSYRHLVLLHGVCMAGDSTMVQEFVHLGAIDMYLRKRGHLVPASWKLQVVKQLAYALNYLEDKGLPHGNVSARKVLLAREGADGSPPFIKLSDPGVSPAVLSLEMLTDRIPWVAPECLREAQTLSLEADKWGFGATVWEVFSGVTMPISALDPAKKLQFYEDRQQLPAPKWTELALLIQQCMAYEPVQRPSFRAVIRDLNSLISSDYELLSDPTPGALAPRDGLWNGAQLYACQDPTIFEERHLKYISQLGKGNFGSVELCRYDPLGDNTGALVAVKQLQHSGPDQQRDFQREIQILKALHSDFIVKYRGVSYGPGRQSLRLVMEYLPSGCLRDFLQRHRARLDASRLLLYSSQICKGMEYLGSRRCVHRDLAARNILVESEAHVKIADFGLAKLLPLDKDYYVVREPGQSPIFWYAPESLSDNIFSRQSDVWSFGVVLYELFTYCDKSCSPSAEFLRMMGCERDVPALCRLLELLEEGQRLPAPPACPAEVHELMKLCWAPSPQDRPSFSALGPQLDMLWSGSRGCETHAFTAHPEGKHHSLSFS
The experiment is described as follows: JAK3 Inhibition Assay. The experiment is classed as biochemical. To be noted: 1 μM poly(Glu)4Tyr, 5 μM ATP, 1 nM JAK3, 25° C.; read-out: JAK3 enzyme inhibition data (Ki). The gist of the method: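 Radiometric JAK3 (1 nM) reaction with 5 μM [33P]ATP and 1 μM poly(Glu)4Tyr in HEPES pH 7.4 buffer, run for 20 min at 25 °C. Reactions were stopped with TCA and filter-captured, and 33P incorporation was counted; values reported as Ki.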

JAK-2 enzyme, sequence (O60674 whole entry, species assumed): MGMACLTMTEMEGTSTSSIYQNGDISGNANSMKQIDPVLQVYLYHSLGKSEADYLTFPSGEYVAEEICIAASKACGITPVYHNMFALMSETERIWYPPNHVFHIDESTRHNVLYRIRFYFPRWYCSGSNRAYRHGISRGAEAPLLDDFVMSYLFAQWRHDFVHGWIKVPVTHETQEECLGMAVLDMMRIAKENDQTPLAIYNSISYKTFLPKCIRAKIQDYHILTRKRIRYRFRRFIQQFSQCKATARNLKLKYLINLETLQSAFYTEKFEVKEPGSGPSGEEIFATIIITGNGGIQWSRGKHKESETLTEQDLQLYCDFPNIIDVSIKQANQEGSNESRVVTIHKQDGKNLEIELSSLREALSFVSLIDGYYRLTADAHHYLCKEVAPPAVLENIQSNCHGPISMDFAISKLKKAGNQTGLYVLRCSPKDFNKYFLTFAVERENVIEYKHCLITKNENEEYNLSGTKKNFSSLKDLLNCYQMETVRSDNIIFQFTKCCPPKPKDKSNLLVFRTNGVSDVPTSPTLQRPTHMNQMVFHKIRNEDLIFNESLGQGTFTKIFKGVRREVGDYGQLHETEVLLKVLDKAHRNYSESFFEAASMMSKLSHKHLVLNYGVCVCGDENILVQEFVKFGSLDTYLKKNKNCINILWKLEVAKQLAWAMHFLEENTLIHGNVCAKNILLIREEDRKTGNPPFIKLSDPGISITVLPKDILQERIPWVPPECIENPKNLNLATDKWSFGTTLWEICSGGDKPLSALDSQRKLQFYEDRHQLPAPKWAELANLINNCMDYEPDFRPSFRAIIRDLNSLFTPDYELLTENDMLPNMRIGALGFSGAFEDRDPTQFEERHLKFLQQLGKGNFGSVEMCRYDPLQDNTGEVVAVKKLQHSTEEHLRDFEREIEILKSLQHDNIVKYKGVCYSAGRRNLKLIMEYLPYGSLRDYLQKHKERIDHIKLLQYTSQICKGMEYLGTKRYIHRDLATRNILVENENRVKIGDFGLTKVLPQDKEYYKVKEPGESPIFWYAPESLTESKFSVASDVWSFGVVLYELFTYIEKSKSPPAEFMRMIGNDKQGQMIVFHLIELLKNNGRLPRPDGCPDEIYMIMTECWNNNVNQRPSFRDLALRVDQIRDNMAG

With `CC(C)(C)OC(=O)N1CCC(C(=O)Nc2nc(-c3ncnc4[nH]ccc34)cs2)CC1` [Compound 178], the Ki on JAK-2 enzyme and at JAK3 was 0.1 to 0.5 µM each time.

As for `CC(C)CNC(=O)c1cc(-c2ncnc3[nH]ccc23)c[nH]1` [Compound 9], the inhibition constant (Ki) at JAK-2 enzyme and at JAK3 was less than 0.1 µM throughout.

`N#CCNC(=O)c1cc(-c2ncnc3[nH]ccc23)c[nH]1` [Compound 15]: the Ki at JAK-2 enzyme and at JAK3 was less than 0.1 µM in each case.

For the compound `N#CCCN(CC1CC1)C(=O)c1coc(-c2ncnc3[nH]ccc23)c1` [Compound 183], the Ki at JAK-2 enzyme and at JAK3 was less than 0.1 µM throughout.

With `CN(C)C1CCN(C(=O)c2cc(-c3ncnc4[nH]ccc34)c[nH]2)C1` (stereo not drawn) [Compound 50], the inhibitory constant (Ki) on JAK-2 enzyme and on JAK3 was 0.5 to 5 µM each time.

On to `C[C@@H]1CC[C@H](C)N1C(=O)c1cc(-c2ncnc3[nH]ccc23)c[nH]1` [Compound 132], for which the inhibition constant Ki on JAK-2 enzyme is less than 0.1 µM; at JAK3, 0.1 to 0.5 µM.

Turning to `CC(C)CN(CCC(F)(F)F)C(=O)c1cc(-c2ncnc3[nH]cc(Cl)c23)c[nH]1` [Compound 244], the results for the Ki at JAK-2 enzyme and at JAK3 were less than 0.1 µM and 0.1 to 0.5 µM, respectively.

With `O=C(c1cc(-c2ncnc3[nH]ccc23)c[nH]1)N1CCC(CO)CC1` [Compound 42], the Ki on JAK-2 enzyme fell in the range of 0.1 to 0.5 µM; at JAK3 it was 0.5 to 5 µM.

In the case of `CC(C(=O)NC1CCCC1)n1cc(-c2ncnc3[nH]ccc23)cn1` (stereo not drawn) [Compound 75], the Ki at JAK-2 enzyme was 0.1 to 0.5 µM; at JAK3 it was less than 0.1 µM.

For the compound `O=C(c1ccc(-c2ncnc3[nH]ccc23)o1)N(CCC(F)(F)F)CC1CCC1` [Compound 215], the Ki on JAK-2 enzyme and on JAK3 was less than 0.1 µM each time.

For the compound `CC[C@@H]1CC[C@@H](CC)N1C(=O)c1cc(-c2ncnc3[nH]ccc23)c[nH]1` [Compound 185], the Ki on JAK-2 enzyme was less than 0.1 µM; at JAK3, 0.1 to 0.5 µM.

Regarding `NC(=O)C1CCCN1C(=O)c1cc(-c2ncnc3[nH]ccc23)c[nH]1` (stereo not drawn) [Compound 47], the Ki at JAK-2 enzyme and at JAK3 was 0.1 to 0.5 µM throughout.

As to `O=C(c1ccc(-c2ncnc3[nH]ccc23)o1)N(CCC(F)(F)F)C1CCCC1` [Compound 193], the inhibition constant (Ki) on JAK-2 enzyme and on JAK3 was less than 0.1 µM throughout.

Turning to `c1cc(-c2ncnc3[nH]ccc23)[nH]n1` [Compound 4], the results for the Ki at JAK-2 enzyme and at JAK3 were 0.5 to 5 µM and 0.1 to 0.5 µM, respectively.

For the compound `CCCCC(CC)n1cc(-c2ncnc3[nH]ccc23)cn1` (stereo not drawn) [Compound 92], the Ki on JAK-2 enzyme and on JAK3 was less than 0.1 µM in each case.

Regarding `CC(C)N(CCC(F)(F)F)C(=O)c1cc(-c2ncnc3[nH]ccc23)co1` [Compound 247], the results for the Ki on JAK-2 enzyme and at JAK3 were 0.1 to 0.5 µM and 0.5 to 5 µM, respectively.

Take `CN1CC(C(=O)Nc2nc(-c3ncnc4[nH]ccc34)cs2)CC1=O` (stereo not drawn) [Compound 172]: the figures for the inhibition constant (Ki) on JAK-2 enzyme and on JAK3 were less than 0.1 µM and 0.1 to 0.5 µM, respectively.

As for `O=C(CCC1CCCC1)Nc1nc(-c2ncnc3[nH]ccc23)cs1` [Compound 67], the Ki on JAK-2 enzyme and on JAK3 was less than 0.1 µM in each case.

`O=C(c1ccc(-c2ncnc3[nH]ccc23)o1)N(CCC(F)(F)F)Cc1ccccc1` [Compound 123]: the Ki at JAK-2 enzyme and on JAK3 was less than 0.1 µM in each case.

As for `O=C(NCC(F)(F)F)c1cc(-c2ncnc3[nH]ccc23)c[nH]1` [Compound 7], the Ki at JAK-2 enzyme and on JAK3 was less than 0.1 µM throughout.

As to `CC(C)CCn1cc(-c2ncnc3[nH]ccc23)cn1` [Compound 107], the inhibitory constant (Ki) is less than 0.1 µM on JAK-2 enzyme and 0.1 to 0.5 µM on JAK3.

Take `C[C@@H](O)CNC(=O)c1cc(-c2ncnc3[nH]ccc23)c[nH]1` [Compound 133]: the Ki was less than 0.1 µM at JAK-2 enzyme and 0.1 to 0.5 µM at JAK3.

For the compound `Cn1cc(-c2ncnc3[nH]ccc23)cc1C(=O)N(CCC(F)(F)F)CC1CCC1` [Compound 223], the Ki at JAK-2 enzyme and on JAK3 was less than 0.1 µM in each case.

`Cc1c[nH]c2ncnc(-c3c[nH]c(C(=O)N(CCC(F)(F)F)CC4CC4)c3)c12` [Compound 208]: the Ki at JAK-2 enzyme and at JAK3 was less than 0.1 µM throughout.

Turning to `CC(C)CC(=O)N(C)c1nc(-c2ncnc3[nH]ccc23)cs1` [Compound 105], the Ki on JAK-2 enzyme and on JAK3 was less than 0.1 µM throughout.

Regarding `CC(C)N(CCC(F)(F)F)C(=O)c1ccc(-c2ncnc3[nH]ccc23)o1` [Compound 210], the Ki at JAK-2 enzyme and on JAK3 was less than 0.1 µM in each case.

Turning to `N#CCCN(Cc1cccnc1)C(=O)c1cc(-c2ncnc3[nH]ccc23)c[nH]1` [Compound 18], the Ki on JAK-2 enzyme and at JAK3 was less than 0.1 µM each time.

For the compound `O=C(c1cc(-c2ncnc3[nH]ccc23)c[nH]1)N1CCCC1C(F)(F)F` (stereo not drawn) [Compound 53], the Ki at JAK-2 enzyme was less than 0.1 µM; on JAK3 it was 0.1 to 0.5 µM.

As for `C=CCN(CC=C)C(=O)c1ccc(-c2ncnc3[nH]ccc23)o1` [Compound 217], the inhibitory constant (Ki) on JAK-2 enzyme and on JAK3 was less than 0.1 µM in each case.

For the compound `CCCN(CCC)C(=O)c1cc(-c2ncnc3[nH]ccc23)c[nH]1` [Compound 26], the Ki at JAK-2 enzyme and at JAK3 was less than 0.1 µM in each case.

In the case of `CCCCN(CC)C(=O)c1cc(-c2ncnc3[nH]cc(Cl)c23)c[nH]1` [Compound 198], the Ki at JAK-2 enzyme and on JAK3 was less than 0.1 µM throughout.

`Cn1cc(-c2ncnc3[nH]ccc23)cc1C(=O)N(CC1CCC1)CC(F)(F)F` [Compound 238]: the inhibition constant (Ki) on JAK-2 enzyme is less than 0.1 µM; at JAK3, 0.1 to 0.5 µM.

With `O=C1CCC(C(=O)Nc2nc(-c3ncnc4[nH]ccc34)cs2)C1` (stereo not drawn) [Compound 167], the Ki on JAK-2 enzyme and at JAK3 was less than 0.1 µM each time.

Take `CC(C(=O)N1CCCC1)n1cc(-c2ncnc3[nH]ccc23)cn1` (stereo not drawn) [Compound 87]: the Ki on JAK-2 enzyme and on JAK3 was 0.1 to 0.5 µM throughout.

Take `N#CCCN(CCC#N)C(=O)c1cc(-c2ncnc3[nH]ccc23)c[nH]1` [Compound 134]: the Ki on JAK-2 enzyme and on JAK3 was less than 0.1 µM in each case.

Consider `N#CCCN(Cc1ccco1)C(=O)c1cc(-c2ncnc3[nH]ccc23)c[nH]1` [Compound 135], for which the Ki at JAK-2 enzyme and on JAK3 was less than 0.1 µM each time.

As to `O=C(Nc1nc(-c2ncnc3[nH]ccc23)cs1)C1CCC1` [Compound 57], the Ki on JAK-2 enzyme and on JAK3 was less than 0.1 µM throughout.

Take `COC(=O)[C@@H]1CC[C@H](C(=O)Nc2nc(-c3ncnc4[nH]ccc34)cs2)C1` [Compound 182]: the values for the Ki at JAK-2 enzyme and at JAK3 were less than 0.1 µM and 0.1 to 0.5 µM, respectively.

Take `C#CCN(C(=O)c1cc(-c2ncnc3[nH]ccc23)c[nH]1)C1CCCCC1` [Compound 137]: the Ki was less than 0.1 µM on JAK-2 enzyme and 0.1 to 0.5 µM on JAK3.

For the compound `COC1CCCC(C(=O)Nc2nc(-c3ncnc4[nH]ccc34)cs2)C1` (stereo not drawn) [Compound 63], the results for the Ki on JAK-2 enzyme and on JAK3 were less than 0.1 µM and 0.1 to 0.5 µM, respectively.

On to `O=C(CCc1ccccc1)Nc1nc(-c2ncnc3[nH]ccc23)cs1` [Compound 68], for which the Ki on JAK-2 enzyme and at JAK3 was less than 0.1 µM in each case.

As for `N#CCN(Cc1ccccc1)C(=O)c1cc(-c2ncnc3[nH]ccc23)c[nH]1` [Compound 111], the Ki at JAK-2 enzyme and at JAK3 was less than 0.1 µM in each case.

Consider `O=C(CCC(F)(F)F)Nc1nc(-c2ncnc3[nH]ccc23)cs1` [Compound 99], for which the Ki on JAK-2 enzyme and at JAK3 was less than 0.1 µM in each case.

Take `CCN(Cc1ccccc1)C(=O)c1ccc(-c2ncnc3[nH]ccc23)o1` [Compound 118]: the Ki on JAK-2 enzyme and on JAK3 was less than 0.1 µM in each case.

Take `O=C(CCC(=O)C1CC1)Nc1nc(-c2ncnc3[nH]ccc23)cs1` [Compound 170]: the Ki on JAK-2 enzyme is less than 0.1 µM; at JAK3, 0.1 to 0.5 µM.

Take `CC(=O)CCC(=O)Nc1nc(-c2ncnc3[nH]ccc23)cs1` [Compound 71]: the values for the Ki on JAK-2 enzyme and at JAK3 were less than 0.1 µM and 0.1 to 0.5 µM, respectively.

Consider `O=C(Nc1nc(-c2ncnc3[nH]ccc23)cs1)C1CC=CC1` [Compound 59], for which the Ki on JAK-2 enzyme and at JAK3 was less than 0.1 µM in each case.

For `CCC1CC[C@@H](CC)N1C(=O)c1cc(-c2ncnc3[nH]ccc23)c[nH]1` (stereo partly drawn) [Compound 184], the results for the Ki on JAK-2 enzyme and at JAK3 were less than 0.1 µM and 0.1 to 0.5 µM, respectively.
